Type in all cases: in vivo
The test system of one test is Boophilus microplus. The test can be described thus: Boophilus microplus injection test. The conditions noted are these: 20 μg/animal injected; adult engorged female ticks; after 7 days. Here is the method: Boophilus microplus—Injection Test
Solvent: dimethyl sulfoxide
To produce a suitable preparation of active compound, 10 mg of active compound are dissolved in 0.5 ml solvent, and the concentrate is diluted with solvent to the desired concentration.
Five adult engorged female ticks (Boophilus microplus) are injected with 1 μl compound solution into the abdomen. The ticks are transferred into replica plates and incubated in a climate chamber.
After 7 days egg deposition of fertile eggs is monitored. Eggs where fertility is not visible are stored in a climate chamber till hatching after about 42 days. An efficacy of 100% means all eggs are infertile; 0% means all eggs are fertile.

A further test has as its system Meloidogyne incognita. Nature of the test: Meloidogyne incognita test. The note with it: 20 ppm; eggs and larvae, salad seeds in sand; after 14 days. As for the experimental part: Meloidogyne incognita—Test
Solvent: 125.0 parts by weight of acetone
To produce a suitable preparation of active compound, 1 part by weight of active compound is mixed with the stated amount of solvent, and the concentrate is diluted with water to the desired concentration.
Vessels are filled with sand, a solution of the active ingredient, a suspension containing eggs and larvae of the southern root-knot nematode (Meloidogyne incognita) and salad seeds. The salad seeds germinate and the seedlings grow. Galls develop in the roots.
After 14 days the nematicidal activity is determined on the basis of the percentage of gall formation. 100% means no galls were found and 0% means the number of galls found on the roots of the treated plants was equal to that in untreated control plants.

Test [1] has as its system Nezara viridula. The test can be described thus: Nezara viridula spray test (solvent 78.0 acetone / 1.5 dimethylformamide). The note with it: 96 h, barley plants, larvae, after 4 days. As for the experimental part: (§1) Nezara viridula—Spray Test
(§2) Solvent: 78.0 parts by weight of acetone • • 1.5 parts by weight of dimethylformamide
(§3) Emulsifier: alkylarylpolyglycol ether
(§4) To produce a suitable preparation of active compound, 1 part by weight of active compound is mixed with the stated amount of solvent, and the concentrate is diluted with water, containing an emulsifier concentration of 1000 ppm, to the desired concentration. Further test concentrations are prepared by dilution with emulsifier containing water.
(§5) Barley plants (Hordeum vulgare) infested with larvae of the southern green stink bug (Nezara viridula) are sprayed with a test solution containing the desired concentration of the active ingredient.
(§6) After 4 days mortality in % is determined. 100% means all the stink bugs have been killed; 0% means none of the stink bugs have been killed.

In the next test the test system is Phaedon cochleariae. The test can be described thus: Phaedon cochleariae spray test. The note with it: foliar, 168 h, Chinese cabbage leaf disks, larvae, after 7 days. Here is the method:
Phaedon cochleariae—Spray Test
as §2, §3
(§7) To produce a suitable preparation of active compound, 1 part by weight of active compound is mixed with the stated amount of solvents and is diluted with water, containing an emulsifier concentration of 1000 ppm, to the desired concentration. Further test concentrations are prepared by dilution with emulsifier containing water.
Chinese cabbage (Brassica pekinensis) leaf disks are sprayed with a preparation of the active ingredient of the desired concentration. Once dry, the leaf disks are infested with mustard beetle larvae (Phaedon cochleariae).
After 7 days mortality in % is determined. 100% means all beetle larvae have been killed and 0% means none of the beetle larvae have been killed.

A further test has as its system Diabrotica balteata. Nature of the test: Diabrotica balteata spray test. The note with it: 160 μg/well; germinated wheat seeds, larvae; after 7 days. As for the experimental part: Diabrotica Balteata—Spray Test
as §2, §3, §4
Soaked wheat seeds (Triticum aestivum) are placed in a multiple well plate filled with agar and some water and are incubated for 1 day to germinate (5 seeds per well). The germinated wheat seeds are sprayed with a test solution containing the desired concentration of the active ingredient. Afterwards each unit is infected with 10-20 larvae of the banded cucumber beetle (Diabrotica balteata).
After 7 days efficacy in % is determined. 100% means all the seedlings have grown up like in the untreated, uninfected control; 0% means none of the seedlings have grown.

The subject of test [2] is Nezara viridula. Nature of the test: Nezara viridula spray test (solvent 52.5 acetone / 7 dimethylformamide). The conditions noted are these: 96 h, barley plants, larvae, after 4 days. As for the experimental part:
as §1
Solvent: 52.5 parts by weight of acetone • 7 parts by weight of dimethylformamide
Emulsifier: alkylaryl polyglycolether
To produce a suitable preparation of active compound, 1 part by weight of active compound is mixed with the stated amount of solvent, and the concentrate is diluted with water, containing an emulsifier concentration of 1000 ppm, to the desired concentration. Ammonium salt and/or penetration enhancer in a dosage of 1000 ppm are added to the desired concentration if necessary.
as §5, §6

Another test concerns Tetranychus urticae. Nature of the test: Tetranychus urticae spray test OP-resistant. The conditions noted are these: foliar, 144 h, French bean leaf disks, all instars, after 6 days. Here is the method: Tetranychus urticae—Spray Test OP-Resistant
Solvent: 78.0 parts by weight acetone • 1.5 parts by weight dimethylformamide
as §3, §7
French bean (Phaseolus vulgaris) leaf disks infected with all instars of the two spotted spidermite (Tetranychus urticae), are sprayed with a preparation of the active ingredient of the desired concentration.
After 6 days mortality in % is determined. 100% means all spider mites have been killed and 0% means none of the spider mites have been killed.

A further test concerns Ctenocephalides felis. The test can be described thus: Ctenocephalides felis in-vitro contact test, adult cat flea. The conditions noted are these: 5 μg/cm^2 (=500 g/ha), after 48 hours. Here is the method: Ctenocephalides felis—In-Vitro Contact Tests Adult Cat Flea
9 mg compound is solved in 1 ml acetone and diluted with acetone to the desired concentration. 250 μl of the test solution is filled in 25 ml glass test tubes and homogeneously distributed on the inner walls by rotation and tilting on a shaking device (2 h at 30 rpm). With a compound concentration of 900 ppm, an inner surface of 44.7 cm^2 and a homogeneous distribution, a dose of 5 μg/cm^2 is achieved.
After the solvent has evaporated, each test tube is filled with 5-10 adult cat fleas (Ctenocephalides felis), closed with a perforated lid and incubated in a lying position at room temperature and relative humidity. After 48 hours efficacy is determined. The fleas are patted on the ground of the tubes and are incubated on a heating plate at 45-50° C. for at most 5 minutes. Immotile or uncoordinated moving fleas, which are not able to escape the heat by climbing upwards, are marked as dead or moribund.
An efficacy of 100% means all fleas are dead or moribund; 0% means no fleas are dead or moribund.

The structures appear in SMILES notation. Bounds are passed on as bounds.

From patent US10271552B2, “Heterocyclic compounds as pesticides” (Bayer CropScience Aktiengesellschaft, priority 2015, dated 2019) come the findings set out here.

Consider `O=C(Nc1nc(-c2c(F)cccc2F)ns1)c1ccccc1Cl` [Compound I-1-3], for which the “efficacy (infertile eggs)” value with Boophilus microplus was 100%. The “nematicidal activity (gall formation)” value in the test on Meloidogyne incognita was found to be 90%. As for `O=C(Nc1nc(-c2c(F)cccc2F)ns1)c1ccccc1I` [Compound I-1-8], the “efficacy (infertile eggs)” value in the test with Boophilus microplus is listed as 100%. `O=C(Nc1nc(-c2ccccc2Cl)ns1)c1ccccc1Br` [Compound I-1-21, 2-Bromo-N-[3-(2-chlorophenyl)-1,2,4-thiadiazol-5-yl]benzamide]: the values for the mortality at 500 g/ha with Nezara viridula [1] and in the test with Phaedon cochleariae were at least 90% and at least 80%, respectively.

As to `O=C(Nc1nc(-c2cccc(F)c2C(F)(F)F)ns1)c1cccnc1C(F)(F)F` [Compound I-1-61], the “efficacy (seedling growth)” value in the test with Diabrotica balteata was determined as 80%.

In the case of `O=C(Nc1nc(-c2cc(F)ccc2C(F)(F)F)ns1)c1cccnc1C(F)(F)F` [Compound I-1-64], the “efficacy (seedling growth)” value with Diabrotica balteata amounted to 100%. Still for that read-out and setting: for `O=C(Nc1nc(-c2ccccc2F)ns1)c1ccccc1C(F)(F)F` [Compound I-1-73] the value was 100%.

The molecule `N#Cc1ccccc1-c1nsc(NC(=O)c2cccnc2C(F)(F)F)n1` [Compound I-1-67, N-[3-(2-Cyanophenyl)-1,2,4-thiadiazol-5-yl]-2-(trifluoromethyl)nicotinamide] came in with a mortality at 500 g/ha in the test on Nezara viridula [2] of at least 90%.

As to `O=C(Nc1nc(-c2c(F)cccc2F)ns1)c1ccccc1C(F)F` [Compound I-1-9], the “efficacy (infertile eggs)” value with Boophilus microplus was 100%. In addition, the “nematicidal activity (gall formation)” value in the test with Meloidogyne incognita is listed as 70%. Regarding `O=C(Nc1nc(-c2c(F)cccc2F)ns1)c1cccnc1CC(F)(F)F` [Compound I-1-38], in the test with Diabrotica balteata, the “efficacy (seedling growth)” value is listed as 80%.

Turning to `O=C(Nc1nc(-c2ccccc2Cl)ns1)c1ccccc1Cl` [Compound I-1-22], in the test on Boophilus microplus, the “efficacy (infertile eggs)” value is listed as 100%.

As for `O=C(Nc1nc(-c2ccccc2Cl)ns1)c1cccnc1C(F)(F)F` [Compound I-1-43, N-[3-(2-chlorophenyl)-1,2,4-thiadiazol-5-yl]-2-(trifluoromethyl)nicotinamide], the mortality at 500 g/ha is at least 90% in the test with Nezara viridula [1], at least 90% in the test with Nezara viridula [2], at least 70% in the test with Tetranychus urticae and at least 80% with Phaedon cochleariae.

`CCc1ncccc1C(=O)Nc1nc(-c2ccccc2Cl)ns1` [Compound I-1-48]: in the test with Meloidogyne incognita, the “nematicidal activity (gall formation)” value was found to be 90%.

Turning to `O=C(Nc1nc(-c2ccccc2C(F)(F)F)ns1)c1ncccc1C(F)(F)F` [Compound I-1-19], the “nematicidal activity (gall formation)” value in the test with Meloidogyne incognita came out at 90%. For the same molecule, the “efficacy (seedling growth)” value in the test with Diabrotica balteata came out at 100%. For `O=C(Nc1nc(-c2c(F)cccc2F)ns1)C1=C(C(F)F)OCCS1` [Compound I-1-39], the “nematicidal activity (gall formation)” value in the test on Meloidogyne incognita came out at 70%. `N#Cc1cccc(C#N)c1-c1nsc(NC(=O)c2cccnc2C(F)(F)F)n1` [Compound I-1-78, N-[3-(2,6-Dicyanophenyl)-1,2,4-thiadiazol-5-yl]-2-(trifluoromethyl)nicotinamide]: the mortality at 500 g/ha in the test with Phaedon cochleariae is at least 80%. For `O=C(Nc1nc(-c2ccccc2OC(F)(F)F)ns1)c1ccccc1C(F)(F)F` [Compound I-1-70, N-{3-[2-(trifluoromethoxy)phenyl]-1,2,4-thiadiazol-5-yl}-2-(trifluoromethyl)benzamide], the “efficacy (seedling growth)” value in the test on Diabrotica balteata came out at 100%. Further, the mortality at 500 g/ha in the test with Phaedon cochleariae was at least 80%. On to `O=C(Nc1nc(-c2ccccc2C(F)(F)F)ns1)c1ccccc1Br` [Compound I-1-16], for which, in the test with Meloidogyne incognita, the “nematicidal activity (gall formation)” value is 90%.

Consider `O=C(Nc1nc(-c2c(F)cccc2F)ns1)c1cccc(Cl)c1C(F)(F)F` [Compound I-1-77], for which the “efficacy (seedling growth)” value with Diabrotica balteata is 80%.

For the molecule `O=C(Nc1nc(-c2ccccc2Cl)ns1)c1nccnc1C(F)(F)F` [Compound I-1-44], the “efficacy (infertile eggs)” value in the test on Boophilus microplus is given as 100%. In addition, the “efficacy (seedling growth)” value with Diabrotica balteata came to 100%. On to `O=C(Nc1nc(-c2c(F)cccc2F)ns1)c1nccnc1C(F)(F)F` [Compound I-1-7], for which, in the test with Ctenocephalides felis, the “efficacy (fleas dead or moribund)” value is 100%. The “efficacy (infertile eggs)” value in the test with Boophilus microplus worked out at 100%. The “efficacy (seedling growth)” value in the test on Diabrotica balteata is reported as 100%. `CCN(C(=O)c1cccnc1C(F)(F)F)c1nc(-c2c(F)cccc2F)ns1` [Compound I-1-34, N-[3-(2,6-Difluorophenyl)-1,2,4-thiadiazol-5-yl]-N-ethyl-2-(trifluoromethyl)nicotinamide] registered a mortality at 500 g/ha with Tetranychus urticae of at least 70%. Regarding `O=C(Nc1nc(-c2c(F)cccc2F)ns1)c1cccnc1C(F)F` [Compound I-1-14], in the test with Boophilus microplus, the “efficacy (infertile eggs)” value stood at 100%. In addition, the “nematicidal activity (gall formation)” value in the test with Meloidogyne incognita was determined as 100%. On to `O=C(Nc1nc(-c2c(F)cccc2F)ns1)c1cccnc1Cl` [Compound I-1-29, 2-Chloro-N-[3-(2,6-difluorophenyl)-1,2,4-thiadiazol-5-yl]nicotinamide], for which the “nematicidal activity (gall formation)” value in the test on Meloidogyne incognita is reported as 100%. Further, the mortality at 500 g/ha in the test on Nezara viridula [1] and in the test on Nezara viridula [2] was at least 90% each time. Also, the “efficacy (seedling growth)” value in the test on Diabrotica balteata worked out at 80%. With `O=C(Nc1nc(-c2ccc(C(F)(F)F)cc2C(F)(F)F)ns1)c1cccnc1C(F)(F)F` [Compound I-1-66, N-{3-[2,4-Bis(trifluoromethyl)phenyl]-1,2,4-thiadiazol-5-yl}-2-(trifluoromethyl)nicotinamide], the mortality at 500 g/ha with Nezara viridula [2] was at least 90%. With `O=C(Nc1nc(-c2c(F)cccc2F)ns1)c1ccccc1C(F)(F)F` [Compound I-1-4], in the test on Ctenocephalides felis, the “efficacy (fleas dead or moribund)” value is 100%. Further, the “efficacy (infertile eggs)” value in the test on Boophilus microplus is recorded as 100%. The “nematicidal activity (gall formation)” value with Meloidogyne incognita came to 90%. Consider `Cc1ccccc1-c1nsc(NC(=O)c2cccnc2C(F)(F)F)n1` [Compound I-1-53], for which the “efficacy (seedling growth)” value with Diabrotica balteata came to 80%. Turning to `CCc1ncccc1C(=O)Nc1nc(-c2c(F)cccc2F)ns1` [Compound I-1-36, N-[3-(2,6-Difluorophenyl)-1,2,4-thiadiazol-5-yl]-2-ethylnicotinamide], the “nematicidal activity (gall formation)” value with Meloidogyne incognita is reported as 100%. Further, the mortality at 500 g/ha in the test on Phaedon cochleariae is at least 80%. Consider `O=C(Nc1nc(-c2cccnc2Cl)ns1)c1ccccc1C(F)(F)F` [Compound I-3-1, N-[3-(2-Chloropyridin-3-yl)-1,2,4-thiadiazol-5-yl]-2-(trifluoromethyl)benzamide], for which the mortality at 500 g/ha in the test on Nezara viridula [2] was at least 90%; in the test with Phaedon cochleariae, at least 80%. Take `O=C(Nc1nc(-c2c(F)cccc2F)ns1)c1ncccc1C(F)(F)F` [Compound I-1-13]: in the test on Meloidogyne incognita, the “nematicidal activity (gall formation)” value amounted to 90%.

The mortality is the share of the test organisms that died. Low values mean a weak lethal effect, high ones a strong lethal effect.
